From ChEMBL document CHEMBL1201862, “PubChem BioAssay data set” (2004)
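Step 1: Grow cells in 96-well plates. Step 2: Expose to compound for 48 hours at 5 concentrations. Step 3: Interpolate endpoints linearly; if unreached, use highest concentration. The concentration for 50% growth inhibition is given as GI50.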 Activity calls are given as the source filed them. No stated cut-off is given here; in the data, active = GI50 up to about 1.1 µM and inactive = higher.

Legend:
Assay in all cases: growth of human tumour cells (NCI), 48 h
786-0 = tested on: 786-0
A498 = tested on: A498
A549 = tested on: A549
ACHN = tested on: ACHN
BT-549 = tested on: BT-549
CAKI-1 = tested on: CAKI-1
CCRF-CEM = tested on: CCRF-CEM
COLO 205 = tested on: COLO 205
DU-145 = tested on: DU-145
EKVX = tested on: EKVX
HCT-116 = tested on: HCT-116
HCT-15 = tested on: HCT-15
HL-60 = tested on: HL-60
HOP-62 = tested on: HOP-62
HOP-92 = tested on: HOP-92
HT-29 = tested on: HT-29
Hs-578T = tested on: Hs-578T
K562 = tested on: K562
KM12 = tested on: KM12
LOX IMVI = tested on: LOX IMVI
M14 = tested on: M14
MCF7 = tested on: MCF7
MDA-MB-231 = tested on: MDA-MB-231
MDA-MB-435 = tested on: MDA-MB-435
MDA-N = tested on: MDA-N
MOLT-4 = tested on: MOLT-4
Malme-3M = tested on: Malme-3M
NCI-H23 = tested on: NCI-H23
NCI-H522 = tested on: NCI-H522
NCI/ADR-RES = tested on: NCI/ADR-RES
OVCAR-3 = tested on: OVCAR-3
OVCAR-8 = tested on: OVCAR-8
PC-3 = tested on: PC-3
RPMI-8226 = tested on: RPMI-8226
RXF 393 = tested on: RXF 393
SF-268 = tested on: SF-268
SF-295 = tested on: SF-295
SF-539 = tested on: SF-539
SK-MEL-28 = tested on: SK-MEL-28
SK-MEL-2 = tested on: SK-MEL-2
SK-MEL-5 = tested on: SK-MEL-5
SK-OV-3 = tested on: SK-OV-3
SN12C = tested on: SN12C
SNB-19 = tested on: SNB-19
SNB-75 = tested on: SNB-75
SW-620 = tested on: SW-620
T47D = tested on: T47D
TK-10 = tested on: TK-10
U-251 = tested on: U-251
UACC-257 = tested on: UACC-257
UACC-62 = tested on: UACC-62
UO-31 = tested on: UO-31
HCC 2998 = tested on: HCC 2998
IGROV-1 = tested on: IGROV-1
NCI-H226 = tested on: NCI-H226
NCI-H460 = tested on: NCI-H460
OVCAR-4 = tested on: OVCAR-4
OVCAR-5 = tested on: OVCAR-5

Which results are given for `Nc1ccc(-c2nc3ccccc3s2)cc1C(F)(F)F`?
GI50 (786-0): 13.5 µM (inactive); GI50 (A498): 17.6 µM (inactive); GI50 (A549): 17.8 µM (inactive); GI50 (ACHN): 15.2 µM (inactive); GI50 (BT-549): 13.2 µM (inactive); GI50 (CAKI-1): 15.2 µM (inactive); GI50 (CCRF-CEM): 21.1 µM (inactive); GI50 (COLO 205): 18.1 µM (inactive); GI50 (DU-145): 15.8 µM (inactive); GI50 (EKVX): 11 µM (inactive); GI50 (HCT-116): 13.4 µM (inactive); GI50 (HCT-15): 13.4 µM; GI50 (HL-60): 12.5 µM (inactive); GI50 (HOP-62): 15.4 µM (inactive); GI50 (HOP-92): 16.3 µM (inactive); GI50 (HT-29): 15.5 µM (inactive); GI50 (Hs-578T): 20 µM (inactive); GI50 (K562): 20 µM (inactive); GI50 (KM12): 16.1 µM (inactive); GI50 (LOX IMVI): 16.4 µM (inactive); GI50 (M14): 14.9 µM (inactive); GI50 (MCF7): 1.52 µM (inactive); GI50 (MDA-MB-231): 13.2 µM (inactive); GI50 (MDA-MB-435): 16.5 µM (inactive); GI50 (MDA-N): 13.6 µM (inactive); GI50 (MOLT-4): 19.9 µM (inactive); GI50 (Malme-3M): 15.8 µM (inactive); GI50 (NCI-H23): 13.5 µM (inactive); GI50 (NCI-H522): 16.8 µM (inactive); GI50 (NCI/ADR-RES): 17.7 µM (inactive); GI50 (OVCAR-3): 16.4 µM (inactive); GI50 (OVCAR-8): 18.6 µM (inactive); GI50 (PC-3): 15.7 µM (inactive); GI50 (RPMI-8226): 16.5 µM (inactive); GI50 (RXF 393): 9.08 µM (inactive); GI50 (SF-268): 16 µM (inactive); GI50 (SF-295): 17.4 µM (inactive); GI50 (SF-539): 18.7 µM (inactive); GI50 (SK-MEL-28): 17.3 µM (inactive); GI50 (SK-MEL-2): 17.2 µM (inactive); GI50 (SK-MEL-5): 15.5 µM (inactive); GI50 (SK-OV-3): 16.6 µM (inactive); GI50 (SN12C): 13.6 µM (inactive); GI50 (SNB-19): 17.4 µM (inactive); GI50 (SNB-75): 14.5 µM (inactive); GI50 (SW-620): 16.4 µM (inactive); GI50 (T47D): 5.31 µM (inactive); GI50 (TK-10): 13.1 µM (inactive); GI50 (U-251): 15 µM (inactive); GI50 (UACC-257): 15.6 µM (inactive); GI50 (UACC-62): 16.9 µM (inactive); GI50 (UO-31): 14.7 µM (inactive)

With `CC1=CC(=O)c2ccccc2C1=O` [MENADIONE] as the compound, how does the GI50 (786-0) read?
Its GI50 is 14.6 µM (inactive).

What about the GI50 (A498) of the same compound?
Its GI50 is 22.6 µM (inactive).

And the GI50 (A549)?
The GI50 was 18.5 µM (inactive).

And the GI50 (ACHN)?
Its GI50 is 3.36 µM (inactive).

What about the GI50 (BT-549) of the same compound?
The GI50 was 12.3 µM (inactive).

And the GI50 (CAKI-1)?
The GI50 was 16.1 µM (inactive).

And the GI50 (CCRF-CEM)?
The GI50 was 2.03 µM (inactive).

And the GI50 (COLO 205)?
The GI50 was 17.7 µM (inactive).

And the GI50 (DU-145)?
The GI50 was 15.9 µM (inactive).

What about the GI50 (EKVX) of the same compound?
Its GI50 is 17.2 µM (inactive).

What about the GI50 (HCC 2998) of the same compound?
The GI50 was 17 µM (inactive).

And the GI50 (HCT-116)?
The GI50 was 2 µM (inactive).

What about the GI50 (HCT-15) of the same compound?
The GI50 was 3.42 µM.

And the GI50 (HL-60)?
Its GI50 is 2 µM (inactive).

And the GI50 (HOP-62)?
The GI50 was 16.1 µM (inactive).

What about the GI50 (HOP-92) of the same compound?
Its GI50 is 1.55 µM (inactive).

And the GI50 (HT-29)?
Its GI50 is 17.9 µM (inactive).

What about the GI50 (Hs-578T) of the same compound?
The GI50 was 10.7 µM (inactive).

And the GI50 (IGROV-1)?
The GI50 was 15.7 µM (inactive).

And the GI50 (K562)?
Its GI50 is 2.38 µM (inactive).

And the GI50 (KM12)?
Its GI50 is 10.7 µM (inactive).

What about the GI50 (LOX IMVI) of the same compound?
Its GI50 is 2.04 µM (inactive).

And the GI50 (M14)?
The GI50 was 5.66 µM (inactive).

What about the GI50 (MCF7) of the same compound?
Its GI50 is 8.34 µM (inactive).

What about the GI50 (MDA-MB-231) of the same compound?
Its GI50 is 5.06 µM (inactive).

And the GI50 (MDA-MB-435)?
Its GI50 is 1.84 µM (inactive).

And the GI50 (MDA-N)?
The GI50 was 0.91 µM (active).

What about the GI50 (MOLT-4) of the same compound?
The GI50 was 1.77 µM (inactive).

And the GI50 (Malme-3M)?
Its GI50 is 4.76 µM (inactive).

And the GI50 (NCI-H226)?
Its GI50 is 14.3 µM (inactive).

What about the GI50 (NCI-H23) of the same compound?
Its GI50 is 7.06 µM (inactive).

What about the GI50 (NCI-H460) of the same compound?
The GI50 was 11.5 µM (inactive).

What about the GI50 (NCI-H522) of the same compound?
The GI50 was 5.06 µM (inactive).

And the GI50 (NCI/ADR-RES)?
The GI50 was 11.9 µM (inactive).

And the GI50 (OVCAR-3)?
Its GI50 is 11.1 µM (inactive).

What about the GI50 (OVCAR-4) of the same compound?
Its GI50 is 3.87 µM (inactive).

And the GI50 (OVCAR-5)?
The GI50 was 11.8 µM (inactive).

And the GI50 (OVCAR-8)?
The GI50 was 10.1 µM (inactive).

And the GI50 (PC-3)?
The GI50 was 3.61 µM (inactive).

And the GI50 (RPMI-8226)?
Its GI50 is 1.72 µM (inactive).

What about the GI50 (RXF 393) of the same compound?
Its GI50 is 13.4 µM (inactive).

What about the GI50 (SF-268) of the same compound?
The GI50 was 7.52 µM (inactive).

And the GI50 (SF-295)?
The GI50 was 16.5 µM (inactive).

And the GI50 (SF-539)?
The GI50 was 3.61 µM (inactive).

And the GI50 (SK-MEL-28)?
The GI50 was 4.94 µM (inactive).

And the GI50 (SK-MEL-2)?
Its GI50 is 8.3 µM (inactive).

And the GI50 (SK-MEL-5)?
The GI50 was 2.18 µM (inactive).

What about the GI50 (SK-OV-3) of the same compound?
The GI50 was 13 µM (inactive).

What about the GI50 (SN12C) of the same compound?
The GI50 was 12.4 µM (inactive).

And the GI50 (SNB-19)?
Its GI50 is 17.9 µM (inactive).

And the GI50 (SNB-75)?
Its GI50 is 10.2 µM (inactive).

And the GI50 (SW-620)?
Its GI50 is 2.14 µM (inactive).

What about the GI50 (T47D) of the same compound?
Its GI50 is 2.01 µM (inactive).

And the GI50 (TK-10)?
The GI50 was 19.9 µM (inactive).

And the GI50 (U-251)?
The GI50 was 13.4 µM (inactive).

What about the GI50 (UACC-257) of the same compound?
The GI50 was 4.17 µM (inactive).

And the GI50 (UACC-62)?
Its GI50 is 4.67 µM (inactive).

And the GI50 (UO-31)?
Its GI50 is 2.65 µM (inactive).
